Patent US12403147B2, “Treatment of ocular inflammation following ocular surgery” (Oculis Operations Sàrl, priority 2019, dated 2025)
Values after ≈ are worked out from the molar mass of the structure shown.

Columns and labels:
[1] = 25° C.; cited from earlier work
[2] = Experimental: For facilitating the interpretation of obtained results, the stress conditions of described studies should be converted to the condition of the currently running long term stability program for an eye drop formulation. For this purpose, the values of pH drop for stock formulations stored in glass containers from the study were compared with pH drop profile for a clinical batch stored at 25° C. in LDPE plastic containers without antioxidant (STS).

OC[C@H]1O[C@@H]2O[C@H]3[C@H](O)[C@@H](O)[C@@H](O[C@H]4[C@H](O)[C@@H](O)[C@@H](O[C@H]5[C@H](O)[C@@H](O)[C@@H](O[C@H]6[C@H](O)[C@@H](O)[C@@H](O[C@H]7[C@H](O)[C@@H](O)[C@@H](O[C@H]8[C@H](O)[C@@H](O)[C@@H](O[C@H]9[C@H](O)[C@@H](O)[C@@H](O[C@H]1[C@H](O)[C@H]2O)O[C@@H]9CO)O[C@@H]8CO)O[C@@H]7CO)O[C@@H]6CO)O[C@@H]5CO)O[C@@H]4CO)O[C@@H]3CO [γ-cyclodextrin]
solubility in pure water [1]: 249.2 ± 0.2 mg/mL (≈ 192 mM)

OC[C@H]1O[C@@H]2O[C@H]3[C@H](O)[C@@H](O)[C@@H](O[C@H]4[C@H](O)[C@@H](O)[C@@H](O[C@H]5[C@H](O)[C@@H](O)[C@@H](O[C@H]6[C@H](O)[C@@H](O)[C@@H](O[C@H]7[C@H](O)[C@@H](O)[C@@H](O[C@H]1[C@H](O)[C@H]2O)O[C@@H]7CO)O[C@@H]6CO)O[C@@H]5CO)O[C@@H]4CO)O[C@@H]3CO [α-cyclodextrin]
solubility in pure water [1]: 129.5 ± 0.7 mg/mL (≈ 133 mM)

DL-Tartaric acid
storage time during which the antioxidant can stabilize the formulation [2]: at least 1 year
